# Reference: ChEMBL document CHEMBL1201862, “PubChem BioAssay data set” (2004)
#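 Protocol summary: plate cells (96-well), add compound at 5 concentrations, incubate 48 h, interpolate endpoints linearly. Abbreviation: GI50, concentration required for 50% inhibition of growth.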 Calls of active or inactive are those of the source. Cut-off read from the data, not from the text of the source: active = GI50 up to about 1.1 µM and inactive = higher.
# Columns and labels:
# Assay in all cases: inhibition of tumour cell growth, NCI panel, 48 h
# SK-MEL-2 = tested on: SK-MEL-2
# OVCAR-8 = tested on: OVCAR-8
# RXF 393 = tested on: RXF 393
# DMS-273 = tested on: DMS-273
# EKVX = tested on: EKVX
# HOP-62 = tested on: HOP-62
# SK-OV-3 = tested on: SK-OV-3
# HCT-116 = tested on: HCT-116
# A549 = tested on: A549
# A498 = tested on: A498
# OVCAR-4 = tested on: OVCAR-4
# HT-29 = tested on: HT-29
# 786-0 = tested on: 786-0
# HOP-92 = tested on: HOP-92
# NCI-H226 = tested on: NCI-H226
# SR = tested on: SR
# PC-3 = tested on: PC-3
# MDA-MB-435 = tested on: MDA-MB-435
# MDA-MB-231 = tested on: MDA-MB-231
# MDA-N = tested on: MDA-N
Structure (SMILES),GI50 (SK-MEL-2),GI50 (OVCAR-8),GI50 (RXF 393),GI50 (DMS-273),GI50 (EKVX),GI50 (HOP-62),GI50 (SK-OV-3),GI50 (HCT-116),GI50 (A549),GI50 (A498),GI50 (OVCAR-4),GI50 (HT-29),GI50 (786-0),GI50 (HOP-92),GI50 (NCI-H226),GI50 (SR),GI50 (PC-3),GI50 (MDA-MB-435),GI50 (MDA-MB-231),GI50 (MDA-N)
CN1CC(=O)N2Cc3ccccc3-n3cccc3C2C1 (stereo not drawn),> 100 µM (inactive),> 100 µM (inactive),> 100 µM (inactive),> 100 µM (inactive),> 100 µM (inactive),> 100 µM (inactive),> 100 µM (inactive),> 100 µM (inactive),> 100 µM (inactive),> 100 µM (inactive),> 100 µM (inactive),> 100 µM (inactive),> 100 µM (inactive),–,–,–,–,–,–,–
COc1ccc2c(c1)C(CCN)C(=O)N2 (stereo not drawn),> 100 µM (inactive),> 100 µM (inactive),–,> 100 µM (inactive),> 100 µM (inactive),> 100 µM (inactive),> 100 µM (inactive),> 100 µM (inactive),> 100 µM (inactive),> 100 µM (inactive),> 100 µM (inactive),> 100 µM (inactive),> 100 µM (inactive),> 100 µM (inactive),–,–,–,–,–,–
COc1cc(Br)c(C2OCCCO2)cc1OCc1ccccc1,> 100 µM (inactive),> 100 µM (inactive),64 µM (inactive),37.6 µM (inactive),> 100 µM (inactive),> 100 µM (inactive),> 100 µM (inactive),39.7 µM (inactive),73.5 µM (inactive),> 100 µM (inactive),69.5 µM (inactive),> 100 µM (inactive),> 100 µM (inactive),9.86 µM (inactive),17.5 µM (inactive),–,–,–,–,–
CC(=O)O[C@H]1CCC2[C@@H]3CCC4Nc5c(cnn5-c5ccccc5)C[C@]4(C)C3CC[C@@]21C (stereo partly drawn),17.1 µM (inactive),18.2 µM (inactive),5.65 µM (inactive),3.18 µM (inactive),3.3 µM (inactive),18.3 µM (inactive),18.7 µM (inactive),14.3 µM (inactive),17.5 µM (inactive),30.5 µM (inactive),21.4 µM (inactive),8.24 µM (inactive),8.49 µM (inactive),–,11.5 µM (inactive),–,–,–,–,–
CCCN(CCCCC(NC(C)=O)C(=O)NCc1ccccc1)C(=O)NCCCl (stereo not drawn),–,> 100 µM (inactive),> 100 µM (inactive),> 100 µM (inactive),> 100 µM (inactive),> 100 µM (inactive),–,59.2 µM (inactive),> 100 µM (inactive),–,> 100 µM (inactive),> 100 µM (inactive),> 100 µM (inactive),> 100 µM (inactive),> 100 µM (inactive),> 100 µM (inactive),–,–,–,–
Nc1cccc2cc(S(=O)(=O)Nc3ccc(C(=O)O)cc3)ccc12,> 100 µM (inactive),> 100 µM (inactive),> 100 µM (inactive),–,> 100 µM (inactive),> 100 µM (inactive),> 100 µM (inactive),> 100 µM (inactive),> 100 µM (inactive),> 100 µM (inactive),> 100 µM (inactive),> 100 µM (inactive),> 100 µM (inactive),> 100 µM (inactive),> 100 µM (inactive),> 100 µM (inactive),> 100 µM (inactive),> 100 µM (inactive),> 100 µM (inactive),> 100 µM (inactive)
O=c1c2cc([N+](=O)[O-])ccc2n(Cc2ccccc2)n1Cc1ccccc1,12.6 µM (inactive),11.9 µM (inactive),24.9 µM (inactive),–,17.2 µM (inactive),> 31.6 µM (inactive),> 10 µM (inactive),16.9 µM (inactive),18.6 µM (inactive),15.9 µM (inactive),12.3 µM (inactive),15.9 µM (inactive),21.7 µM (inactive),14.2 µM (inactive),12.7 µM (inactive),14 µM (inactive),12 µM (inactive),10.8 µM (inactive),12.6 µM (inactive),12.2 µM (inactive)
O=C(Nc1ccccn1)c1cc2c(cc1Cl)Sc1nccn1S2(=O)=O,20 µM (inactive),37.8 µM (inactive),25.5 µM (inactive),–,38.2 µM (inactive),39.6 µM (inactive),38.1 µM (inactive),28.4 µM (inactive),34.8 µM (inactive),45 µM (inactive),33 µM (inactive),31.1 µM (inactive),35.1 µM (inactive),51.9 µM (inactive),24.2 µM (inactive),29.4 µM (inactive),44.8 µM (inactive),27.9 µM (inactive),21.1 µM (inactive),36.3 µM (inactive)
Nc1ccc(Oc2ccc(C34CC5CC6C3CC3CC4C(C5)C6(c4ccc(Oc5ccc(N)c(O)c5)cc4)C3)cc2)cc1O,19.5 µM (inactive),0.67 µM (active),4.13 µM (inactive),–,1.79 µM (inactive),4.78 µM (inactive),10.1 µM (inactive),1.31 µM (inactive),1.9 µM (inactive),7.36 µM (inactive),4.27 µM (inactive),3.59 µM (inactive),3.15 µM (inactive),1.35 µM (inactive),3.52 µM (inactive),1.62 µM (inactive),1.66 µM (inactive),3.83 µM (inactive),3.75 µM (inactive),3.22 µM (inactive)
CC(NNC(=O)c1ccncc1)c1cccc(C(F)(F)F)c1 (stereo not drawn),> 100 µM (inactive),> 100 µM (inactive),> 100 µM (inactive),–,> 100 µM (inactive),> 100 µM (inactive),> 100 µM (inactive),> 100 µM (inactive),> 100 µM (inactive),> 100 µM (inactive),> 100 µM (inactive),> 100 µM (inactive),> 100 µM (inactive),> 100 µM (inactive),> 100 µM (inactive),> 100 µM (inactive),> 100 µM (inactive),> 100 µM (inactive),> 100 µM (inactive),> 100 µM (inactive)
COc1cc(CNc2nc3ccc(C(F)(F)F)cc3nc2-c2ccccc2)cc(OC)c1OC,20.9 µM (inactive),47.5 µM (inactive),–,39 µM (inactive),11.9 µM (inactive),76.6 µM (inactive),7.18 µM (inactive),15.4 µM (inactive),20 µM (inactive),38.2 µM (inactive),19.4 µM (inactive),32.9 µM (inactive),28.3 µM (inactive),–,–,–,–,–,–,–
CC(=O)OC1CCC2(C)C(=CC(C3C=C4CC(OC(C)=O)CCC4(C)C4=C3C3CC5OC6(CCC(C)CO6)C(C)C5C3(C)CC4)C3=C2CCC2(C)C3CC3OC4(CCC(C)CO4)C(C)C32)C1 (stereo not drawn),16.5 µM (inactive),11.1 µM (inactive),16.1 µM (inactive),–,17.9 µM (inactive),15.5 µM (inactive),16.3 µM (inactive),15.1 µM (inactive),13.7 µM (inactive),17.1 µM (inactive),14 µM (inactive),14 µM (inactive),16.1 µM (inactive),14.1 µM (inactive),23 µM (inactive),11.9 µM (inactive),12.9 µM (inactive),14.1 µM (inactive),16.3 µM (inactive),17.2 µM (inactive)
OC1c2ccccc2CCC1C(O)(C(F)(F)F)C(F)(F)F (stereo not drawn),> 100 µM (inactive),> 100 µM (inactive),> 100 µM (inactive),–,> 100 µM (inactive),> 100 µM (inactive),> 100 µM (inactive),> 100 µM (inactive),> 100 µM (inactive),> 100 µM (inactive),> 100 µM (inactive),> 100 µM (inactive),> 100 µM (inactive),35.1 µM (inactive),38.4 µM (inactive),> 100 µM (inactive),> 100 µM (inactive),> 100 µM (inactive),11 µM (inactive),> 100 µM (inactive)
CC1(C)C2CC1C(/C=N\OCC(=O)O)=CC2=O (stereo not drawn),> 100 µM (inactive),> 100 µM (inactive),> 100 µM (inactive),–,> 100 µM (inactive),> 100 µM (inactive),> 100 µM (inactive),> 100 µM (inactive),> 100 µM (inactive),> 100 µM (inactive),> 100 µM (inactive),> 100 µM (inactive),> 100 µM (inactive),> 100 µM (inactive),> 100 µM (inactive),> 100 µM (inactive),> 100 µM (inactive),> 100 µM (inactive),> 100 µM (inactive),> 100 µM (inactive)
C1CSCCSCCCS[C@@H]2CCCCC2SC1 (stereo partly drawn),> 100 µM (inactive),> 100 µM (inactive),> 100 µM (inactive),> 100 µM (inactive),> 100 µM (inactive),> 100 µM (inactive),> 100 µM (inactive),> 100 µM (inactive),> 100 µM (inactive),> 100 µM (inactive),> 100 µM (inactive),> 100 µM (inactive),> 100 µM (inactive),65.2 µM (inactive),> 100 µM (inactive),–,–,–,–,–
COc1ccc(C2=C(Cl)c3cc(OC)c(OC)cc3C2Cl)cc1OC (stereo not drawn),–,15.4 µM (inactive),14.2 µM (inactive),14.3 µM (inactive),22.2 µM (inactive),16.5 µM (inactive),32.1 µM (inactive),15.2 µM (inactive),19.5 µM (inactive),–,18.2 µM (inactive),16.3 µM (inactive),19.1 µM (inactive),24.8 µM (inactive),–,–,–,–,–,–
O=C(NCCCN1CCN(CCCNC(=O)c2cnc3ccccc3n2)CC1)c1cnc2ccccc2n1,> 100 µM (inactive),> 100 µM (inactive),> 100 µM (inactive),> 100 µM (inactive),> 100 µM (inactive),> 100 µM (inactive),> 100 µM (inactive),44.8 µM (inactive),> 100 µM (inactive),82 µM (inactive),> 100 µM (inactive),88.3 µM (inactive),> 100 µM (inactive),–,86.5 µM (inactive),–,–,–,–,–
